The test system of series [1] is monocrotaline (MCT) induced pulmonary arterial hypertension in rats. Put plainly: Pulmonary artery pressure in monocrotaline treated rats. The series is classed as in vivo, rat (male Sprague Dawley). The procedure:
Pulmonary Artery Pressure in Monocrotaline Treated Rats
Male Sprague Dawley rats (250-300 g) are treated with monocrotaline 60 mg/kg subcutanously (=day 0). On day 14 after monocrotaline injection treatment the compound/combination to be tested is administered. On day 28 hemodynamic parameters, i.e. right ventricular pressure, systemic blood pressure, heart rate, arterial and venous oxygen saturation are measured and compared with untreated control animals.
The mentioned monocrotaline (MCT) treated rats are randomized to receive example 14 [4-(4-chlorophenylamino)-7-(2-methylaminocarbonyl-4-pyridylmethoxy)furo-[2,3-d]pyridazine] 10 mg/kg or vehicle by gavage once daily after the onset of moderate pulmonary arterial hypertension starting 14 days after the injection of MCT until the final hemodynamic measurement on day 28. In animals with MCT induced pulmonary arterial hypertension treatment with example 14 markedly decreases right ventricular systolic pressure, compared to vehicle treated animals (control: 25±0.56 mmHg; example 14: 42.04±3.21 mmHg vs. placebo: 71.02±5.38 mmHg) (mean±SEM). This effect of example 14 is paralleled by an inhibition of right ventricular hypertrophy (right ventricle/left ventricle+septum ratio control: 0.26±0.01; example 14: 0.32±0.02 vs. placebo: 0.54±0.04).

SMILES strings stand for the structures.

With `NC(=O)c1cc(COc2nnc(Nc3ccc(Cl)cc3)c3ccsc23)ccn1`, the melting point (as a rule, the temperature, or range, at which the solid turns liquid) was 233 °C.

On to `Clc1ccc(Nc2nnc(OCc3ccncc3)c3sccc23)cc1`, for which the melting point was 203 to 205 °C (dec.).

On to `CNC(=O)c1cc(COc2nnc(Nc3ccc(Cl)cc3)c3ccoc23)ccn1` [Example 14, 4-(4-chlorophenylamino)-7-(2-methylaminocarbonyl-4-pyridylmethoxy)furo-[2,3-d]pyridazine], for which the “right ventricle/left ventricle+septum ratio (right ventricular hypertrophy)” value in series [1] (10 mg/kg by gavage once daily from day 14 to day 28, day 28, control 0.26±0.01, placebo 0.54±0.04) was determined as 0.32±0.02. For the same compound, in series [1] (10 mg/kg by gavage once daily from day 14 to day 28, measured day 28, mean±SEM, control 25±0.56, placebo 71.02±5.38), the “right ventricular systolic pressure” value is given as 42.04±3.21 mmHg.

Values taken from patent US8304406B2, “Compounds for treating pulmonary hypertension” (Bayer Intellectual Property GmbH, priority 2006, dated 2012).
